pIC50: −log10 of the molar value.
Tests used:
DU-145 [1] = assay: Growth inhibition of human DU145 cells after 48 hrs by WST-1 assay; format: functional; conditions: DU-145, 48 h
[2] = target: T1, Signal transducer and activator of transcription 3 (Homo sapiens, UniProt P40763); assay: Inhibition of STAT3 (unknown origin) expressed in human HCT116 cells after 24 hrs by dual-luciferase reporter gene assay; format: cell-based
[3] = target: T1, Signal transducer and activator of transcription 3; assay: Inhibition of STAT3 phosphorylation at Tyr705 residues in human DU145 cells assessed as ratio of phosphorylated STAT3 protein level to GAPDH protein level at 0.5 uM after 24 hrs by Western blot analysis (reference value: 1); format: cell-based
[4] = target: T1, Signal transducer and activator of transcription 3; assay: Inhibition of STAT3 phosphorylation at Tyr705 residues in human DU145 cells assessed as ratio of phosphorylated STAT3 protein level to GAPDH protein level at 5 uM after 24 hrs by Western blot analysis (reference value: 1); format: cell-based
[5] = target: T1, Signal transducer and activator of transcription 3; assay: Inhibition of STAT3 phosphorylation at Tyr705 residues in human DU145 cells assessed as ratio of phosphorylated STAT3 protein level to GAPDH protein level at 5 uM after 0.5 hrs by Western blot analysis (reference value: 1); format: cell-based
[6] = target: T1, Signal transducer and activator of transcription 3; assay: Inhibition of STAT3 phosphorylation at Tyr705 residues in human DU145 cells assessed as ratio of phosphorylated STAT3 protein level to GAPDH protein level at 5 uM after 12 hrs by Western blot analysis (reference value: 1); format: cell-based
DU-145 [7] = assay: Effect on total STAT3 protein level in human DU145 cells assessed as ratio of STAT3 protein level to GAPDH protein level at 5 uM after 3 hrs by Western blot analysis (reference value: 1); format: ADME, cell-based; conditions: du-145, 3 h
DU-145 [8] = assay: Effect on total STAT3 protein level in human DU145 cells assessed as ratio of STAT3 protein level to GAPDH protein level at 5 uM after 6 hrs by Western blot analysis (reference value: 1); format: ADME, cell-based; conditions: du-145, 6 h
DU-145 [9] = assay: Effect on total STAT3 protein level in human DU145 cells assessed as ratio of STAT3 protein level to GAPDH protein level at 5 uM after 12 hrs by Western blot analysis (reference value: 1); format: ADME, cell-based; conditions: du-145, 12 h
[10] = target: T1, Signal transducer and activator of transcription 3; assay: Inhibition of STAT3 phosphorylation in human LNCAP cells assessed as ratio of phosphorylated STAT3 protein level to GAPDH protein level at 5 uM after 12 hrs by Western blot analysis (reference value: 1); format: cell-based
DU-145 [11] = assay: Cell cycle arrest in human DU145 cells assessed as accumulation at G2/M phase at 5 uM after 24 hrs by flow cytometry (reference value: 18.12%); format: functional
DU-145 [12] = assay: Cell cycle arrest in human DU145 cells assessed as accumulation at G0/G1 phase at 5 uM after 48 hrs by flow cytometry (reference value: 24.07%); format: functional
DU-145 [13] = assay: Cell cycle arrest in human DU145 cells assessed as accumulation at S phase at 5 uM after 48 hrs by flow cytometry (reference value: 6.6%); format: functional
DU-145 [14] = assay: Cell cycle arrest in human DU145 cells assessed as accumulation at G2/M phase at 5 uM after 48 hrs by flow cytometry (reference value: 18.12%); format: functional
[15] = target: T1, Signal transducer and activator of transcription 3; assay: Binding affinity to STAT3 in human DU145 cell lysates assessed as reduction in pronase-induced STAT3 digestion by measuring ratio of STAT3 protein level to GAPDH protein level at 50 uM incubated for 1 hr followed by 0.02% pronase addition for 10 mins by Western blot analysis (reference value: 0.6)
[16] = target: T1, Signal transducer and activator of transcription 3; assay: Binding affinity to STAT3 in human DU145 cell lysates assessed as reduction in pronase-induced STAT3 digestion by measuring ratio of STAT3 protein level to GAPDH protein level at 50 uM incubated for 1 hr followed by 0.05% pronase addition for 10 mins by Western blot analysis (reference value: 0.4)
[17] = target: T1, Signal transducer and activator of transcription 3; assay: Binding affinity to STAT3 in human DU145 cell lysates assessed as reduction in pronase-induced STAT3 digestion by measuring ratio of STAT3 protein level to GAPDH protein level at 100 uM incubated for 1 hr in absence of pronase by Western blot analysis (reference value: 1)
[18] = target: T1, Signal transducer and activator of transcription 3; assay: Binding affinity to STAT3 in human DU145 cell lysates assessed as reduction in pronase-induced STAT3 digestion by measuring ratio of STAT3 protein level to GAPDH protein level at 1 uM incubated for 1 hr followed by 0.05% pronase addition for 10 mins by Western blot analysis (reference value: 1)
[19] = target: T1, Signal transducer and activator of transcription 3; assay: Binding affinity to STAT3 in human DU145 cell lysates assessed as reduction in pronase-induced STAT3 digestion by measuring ratio of STAT3 protein level to GAPDH protein level incubated for 1 hr followed by 0.05% pronase addition for 10 mins by Western blot analysis
DU-145 [20] = assay: Induction of intracellular ROS generation in human DU145 cells at 5 uM by DCFH-DA probe based flow cytometry; format: functional, cell-based; conditions: TDE = time-dependent effect
[21] = target: T1, Signal transducer and activator of transcription 3; assay: Inhibition of STAT3-induced ERK1/2 phosphorylation in human DU145 cells assessed as ratio of phosphorylated ERK1/2 protein level to GAPDH protein level at 5 uM after 1 hr by Western blot analysis (reference value: 1); format: cell-based
[22] = target: T1, Signal transducer and activator of transcription 3; assay: Inhibition of STAT3-induced ERK1/2 phosphorylation in human DU145 cells assessed as ratio of phosphorylated ERK1/2 protein level to GAPDH protein level at 5 uM after 3 hrs by Western blot analysis (reference value: 1); format: cell-based
[23] = target: T1, Signal transducer and activator of transcription 3; assay: Inhibition of STAT3-induced ERK1/2 phosphorylation in human DU145 cells assessed as ratio of phosphorylated ERK1/2 protein level to GAPDH protein level at 5 uM after 6 hrs by Western blot analysis (reference value: 1); format: cell-based
DU-145 [24] = assay: Effect on total ERK1/2 protein level in human DU145 cells assessed as ratio of ERK1/2 protein level to GAPDH protein level at 5 uM after 6 hrs by Western blot analysis (reference value: 1); format: ADME, cell-based; conditions: du-145, 6 h
DU-145 [25] = assay: Effect on total ERK1/2 protein level in human DU145 cells assessed as ratio of ERK1/2 protein level to GAPDH protein level at 5 uM after 12 hrs by Western blot analysis (reference value: 1); format: ADME, cell-based; conditions: du-145, 12 h
[26] = target: T1, Signal transducer and activator of transcription 3; assay: Inhibition of STAT3 phosphorylation in human DU145 cells assessed as ratio of phosphorylated STAT3 protein level to GAPDH protein level at 5 uM preincubated with NAC for 1 hr followed by compound addition for 1 hr by Western blot analysis (reference value: 0.3); format: cell-based
DU-145 [27] = assay: Effect on total STAT3 protein level in human DU145 cells assessed as ratio of ERK1/2 protein level to GAPDH protein level at 5 uM preincubated with NAC for 1 hr followed by compound addition for 1 hr by Western blot analysis (reference value: 1); format: ADME, cell-based; conditions: du-145, 1 h
[28] = target: T1, Signal transducer and activator of transcription 3; assay: Inhibition of STAT3 in human DU145 cells assessed as increase in ERK1/2 phosphorylation at 5 uM by Western blot analysis; format: cell-based; conditions: TDE = time-dependent effect

T1 sequence (P40763 whole entry): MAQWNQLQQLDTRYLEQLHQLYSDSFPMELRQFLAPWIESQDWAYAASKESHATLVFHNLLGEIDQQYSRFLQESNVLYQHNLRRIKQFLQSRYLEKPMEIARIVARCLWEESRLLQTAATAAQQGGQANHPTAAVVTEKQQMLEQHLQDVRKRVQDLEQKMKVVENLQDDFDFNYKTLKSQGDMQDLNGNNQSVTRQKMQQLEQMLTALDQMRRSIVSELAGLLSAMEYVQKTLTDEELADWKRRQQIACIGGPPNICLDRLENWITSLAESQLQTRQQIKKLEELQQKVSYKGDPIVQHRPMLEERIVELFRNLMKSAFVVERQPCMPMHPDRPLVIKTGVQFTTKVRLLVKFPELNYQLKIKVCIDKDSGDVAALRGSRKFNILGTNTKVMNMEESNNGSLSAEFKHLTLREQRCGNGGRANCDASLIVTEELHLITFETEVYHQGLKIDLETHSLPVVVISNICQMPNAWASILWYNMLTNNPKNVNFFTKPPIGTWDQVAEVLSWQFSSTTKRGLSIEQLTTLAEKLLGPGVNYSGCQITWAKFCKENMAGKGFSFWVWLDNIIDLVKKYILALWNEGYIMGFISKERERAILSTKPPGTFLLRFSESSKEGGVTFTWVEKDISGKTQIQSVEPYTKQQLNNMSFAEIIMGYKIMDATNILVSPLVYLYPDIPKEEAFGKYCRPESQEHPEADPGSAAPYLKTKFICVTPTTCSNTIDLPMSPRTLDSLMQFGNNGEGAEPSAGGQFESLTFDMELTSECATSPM

Q: With `C=C(C)C(=O)N(Cc1ccc(Br)cc1)C(=O)/C=C/c1cc(OC)c(OC)c(OC)c1` as the molecule, how does the GI50 (DU-145 [1]) read?
A: 900 nM

Q: And the pIC50 [2]?
A: 5.00

Q: And the inhibition [2]?
A: Dose-dependent effect

Q: What about the Ratio [3] of the same molecule?
A: 0.7

Q: What about the Ratio [4] of the same molecule?
A: 0.3

Q: And the Ratio [5]?
A: 0.5

Q: What about the Ratio [6] of the same molecule?
A: 0.2

Q: And the Ratio (DU-145 [7])?
A: 1

Q: And the Ratio (DU-145 [8])?
A: 1

Q: And the Ratio (DU-145 [9])?
A: 0.9

Q: What about the Ratio [10] of the same molecule?
A: 1

Q: And the Activity (DU-145 [11])?
A: 22.2%

Q: And the Activity (DU-145 [12])?
A: 26.59%

Q: And the Activity (DU-145 [13])?
A: 6.57%

Q: And the Activity (DU-145 [14])?
A: 18.95%

Q: What about the Ratio [15] of the same molecule?
A: 0.6

Q: And the Ratio [16]?
A: 0.5

Q: What about the Ratio [17] of the same molecule?
A: 1.2

Q: What about the Ratio [18] of the same molecule?
A: 1.1

Q: And the Activity [19]?
A: Dose-dependent effect

Q: And the Activity (DU-145 [20])?
A: Tde

Q: What about the Ratio [21] of the same molecule?
A: 1.8

Q: And the Ratio [22]?
A: 2

Q: And the Ratio [23]?
A: 2.2

Q: And the Ratio (DU-145 [24])?
A: 1

Q: What about the Ratio (DU-145 [25]) of the same molecule?
A: 0.9

Q: What about the Ratio [26] of the same molecule?
A: 1.2

Q: What about the Ratio (DU-145 [27]) of the same molecule?
A: 0.7

Q: What about the inhibition [28] of the same molecule?
A: Tde

Source: ChEMBL document CHEMBL4219265, “Piperlongumine derivative, CG-06, inhibits STAT3 activity by direct binding to STAT3 and regulating the reactive oxygen species in DU145 prostate carcinoma cells” (Bioorg Med Chem Lett, 2018)
